Assay results published in patent publication US20060287319A1, “Anti-viral compositions comprising heterocyclic substituted phenyl furans and related compounds” (priority 2005, published 2006).
Where two headings read alike, the source gives them in different places.

Key:
HIV-1 IIIB [1] = details: for EC50: read-out: EC50 (μM) (M ± SD) for inhibition of p24, HIV-1 IIIB, MT-2 cells
Protocol: Assessment of anti-HIV-1 infectivity. The inhibitory activity of compounds on infection by laboratory-adapted HIV-1 strains was determined as previously described (34). […] For the time-of-addition assay, compounds were added at various time post-infection. Then the culture supernatants were removed and fresh media were added. On the fourth day post-infection, 100 μl of culture supernatants were collected from each well, mixed with equal volumes of 5% Triton X-100 and assayed for p24 antigen, which was quantitated by ELISA (23). Briefly, the wells of polystyrene plates (Immulon 1B, Dynex Technology, Chantilly, Va.) were coated with HIV immunoglobulin (HIVIG), which was prepared from plasma of HIV-seropositive donors with high neutralizing titers against HIV-1IIIB as previously described (36) in 0.085 M carbonate-bicarbonate buffer (pH 9.6) at 4° C. overnight, followed by washes with PBS-T buffer (0.01M PBS containing 0.05% Tween-20) and blocking with PBS containing 1% dry fat-free milk (Bio-Rad Inc., Hercules, Calif.). Virus lysates were added to the wells and incubated at 37° C. for 1 h. […] Reactions were terminated by addition of 1N H2SO4. […] Recombinant protein p24 (US Biological, Swampscott, Mass.) was included for establishing standard dose response curve.

MT-2 cells = system: MT-2 cells
Protocol: Detection of in vitro cytotoxicity. The in vitro cytotoxicity of compounds for MT-2 cells was measured by a colorimetric method using XTT tetrazolium dye as previously described (21). Briefly, 100 μl of a compound at a graded concentration was added to equal volume of cells (5×10^5/ml) in a well of 96-well plates. After incubation at 37° C. for 4 days, XTT (1 mg/ml; […]; PolySciences, Inc., Warrington, Pa.) was added. Four hours later, the soluble intracellular formazan was quantitated colorimetrically at 450 nm with a reference at 570 nm.

[2] = system: HIV-1IIIB infected H9 cells (H9/HIV-1IIIB) and MT-2 cells; assay: HIV-1 mediated cell-cell fusion (dye transfer assay); assay type: cell-based; details: H9/HIV-1IIIB with MT-2 cells; read-out: EC50 (μM) (M ± SD) for inhibition of Cell fusion
Protocol: Inhibition of cell-cell fusion. A dye transfer assay was used for detection of HIV-1 mediated cell fusion as previously described (11,25,26). H9/HIV-1IIIB cells were labeled with a fluorescent reagent, Calcein-AM (Molecular Probes, Inc., Eugene, Oreg.) and then incubated with MT-2 cells (ratio=1:5) in 96-well plates at 37° C. for 2 hrs in the presence or absence of compounds tested. The fused and unfused Cacein-labeled HIV-1-infected cells were counted under an inverted fluorescence microscope (Zeiss, Germany) with an eyepiece micrometer disc. The percentage of inhibition of cell fusion and the IC50 values were calculated as previously described (11).

HIV-1 IIIB [3] = assay: HIV-1-mediated cytopathic effect (CPE); assay type: cell-based; details: read-out: EC50 (μM) (M ± SD) for inhibition of CPE
Text: We thus purchased these compounds and tested their inhibitory activity on: 1) HIV-1 replication (p24 production); 2) HIV-1-mediated cytopathic effect (CPE); and 3) HIV-1 Env-induced cell-cell fusion; and their cytotoxicity to MT-2 cells.

[4] = read-out: Cytotoxicity CC50 (μM) (M ± SD), MT-2 cells

Structure (SMILES)	EC50 (HIV-1 IIIB [1]) [µM]	SI (CC50/EC50) (HIV-1 IIIB [1]; selectivity index)	CC50 (MT-2 cells; [4]) [µM]	EC50 [2] [µM]	EC50 (HIV-1 IIIB [3]) [µM]	CC50 (MT-2 cells) [µM]	SI (CC50/EC50) (HIV-1 IIIB [1])
Cc1ccc(N2C(=O)/C(=C/c3ccc(-c4cccc(C(=O)O)c4)o3)SC2=S)cc1 [NB230]	0.332 ± 0.095	428.93	142	3.08 ± 0.047	2.16 ± 0.284	–	–
Cc1ccc(NC(=O)CN2C(=O)S/C(=C\c3ccc(-c4ccc(Cl)c(C(=O)O)c4)o3)C2=O)cc1 [NB199]	> 100	–	–	> 100	> 100	> 322	–
O=C(O)c1cccc(-c2ccc(/C=C3\SC(=S)N(C4CCCCC4)C3=O)o2)c1 [NB181]	0.218 ± 0.024	>1777.78	> 387	> 100	0.605 ± 0.194	–	–
O=C(O)c1cc(-c2ccc(/C=C3\SC(=S)N(C4CCCCC4)C3=O)o2)ccc1Cl [NB219]	0.087 ± 0.04	78.97	6.87 ± 0.29	4.3 ± 0.134	0.401 ± 0.067	–	–
C=CCN1C(=O)/C(=C/c2ccc(-c3cccc(C(=O)O)c3)o2)SC1=S [NB183]	0.323 ± 0.081	–	–	16.8 ± 0.457	0.753 ± 0.081	174 ± 16.2	537.83
Cc1ccc(NC(=O)CN2C(=O)S/C(=C\c3ccc(-c4cccc(C(=O)O)c4C)o3)C2=O)cc1 [NB196]	> 100	–	–	> 100	> 100	> 336	–
CCC(C)N1C(=O)S/C(=C\c2ccc(-c3cc(C(=O)O)ccc3Cl)o2)C1=O (stereo not shown) [NB232]	> 100	–	–	> 100	> 100	> 394	–
O=C(O)c1cc(-c2ccc(/C=C3\SC(=O)N(c4cccc(Cl)c4)C3=O)o2)ccc1Cl [NB139]	> 100	–	239 ± 14.7	> 100	> 100	–	–
O=C1NC(=S)S/C1=C\c1ccc(-c2cc(C(=O)O)ccc2Cl)o1 [NB190]	> 100	–	–	> 100	> 100	> 437	–
O=C(O)c1cc(-c2ccc(/C=C3\SC(=O)N(c4ccc(Cl)cc4)C3=O)o2)ccc1Cl [NB140]	12.1 ± 2.73	10.41	126 ± 19.2	> 100	63.4 ± 1.28	–	–
O=C(O)c1cc(-c2ccc(/C=C3\SC(=S)N(Cc4ccc(F)cc4)C3=O)o2)ccc1Cl [NB208]	1.84 ± 0.654	29.77	54.6 ± 15.3	6.668 ± 0.042	> 100	–	–
Cc1c(C(=O)O)cccc1-c1ccc(/C=C2\SC(=S)N(CC(=O)O)C2=O)o1 [NB228]	> 100	–	–	> 100	> 100	> 397	–
CCN1C(=O)S/C(=C\c2ccc(-c3cc(C(=O)O)ccc3Cl)o2)C1=O [NB236]	> 100	–	–	> 100	> 100	113 ± 8.64	–
O=C(O)CN1C(=O)/C(=C/c2ccc(-c3cccc(C(=O)O)c3)o2)SC1=S [NB180]	> 100	–	–	> 100	> 100	> 411	–
C=CCN1C(=O)/C(=C/c2ccc(-c3cccc(C(=O)O)c3C)o2)SC1=S [NB189]	0.984 ± 0.155	–	–	4.33 ± 0.078	2.28 ± 0.389	> 414	>421.05
O=C(O)c1cccc(-c2ccc(/C=C3\SC(=S)N(c4cccc5ccccc45)C3=O)o2)c1 [NB221]	0.46 ± 0.009	75.04	34.5 ± 0.46	7.11 ± 0.24	1.58 ± 0.241	–	–
O=C(O)c1cccc(-c2ccc(/C=C3\SC(=S)N(c4cccc(F)c4)C3=O)o2)c1 [NB147]	10.4 ± 0.84	8.85	92.3 ± 5.62	> 100	> 100	–	–
COC(=O)CN1C(=O)S/C(=C\c2ccc(-c3cc(C(=O)O)ccc3Cl)o2)C1=O [NB234]	> 100	–	> 379	> 100	> 100	–	–
CN1C(=O)/C(=C/c2ccc(-c3cccc(C(=O)O)c3)o2)SC1=S [NB151]	0.667 ± 0.174	–	–	43.7	3.86 ± 0.58	125 ± 14.7	187.17
CC(C)CN1C(=O)S/C(=C\c2ccc(-c3ccc(Cl)c(C(=O)O)c3)o2)C1=O [NB193]	> 100	–	–	> 100	> 100	> 394	–
O=C1/C(=C/c2ccc(-c3cccc(Cl)c3)o2)SC(=S)N1c1ccccc1 [NB239]	> 100	–	> 402	> 100	> 100	–	–
CN1C(=O)S/C(=C\c2ccc(-c3cc(C(=O)O)ccc3Cl)o2)C1=O [NB186]	> 100	–	–	> 100	> 100	> 440	–
Cc1ccc(NC(=O)CN2C(=O)S/C(=C\c3ccc(-c4cccc(C(=O)O)c4)o3)C2=O)cc1 [NB194]	> 100	–	–	> 100	> 100	207 ± 4.4	–
COc1ccc(CN2C(=O)/C(=C/c3ccc(-c4ccc(Cl)c(C(=O)O)c4)o3)SC2=S)cc1 [NB211]	1.13 ± 0.103	–	–	68.6 ± 1.83	2.23 ± 0.515	93.2 ± 4.41	82.24
O=C(O)c1cc(-c2ccc(/C=C3\SC(=S)N(c4ccc(Cl)cc4)C3=O)o2)ccc1Cl [NB213]	0.514 ± 0.128	181.04	93 ± 12.8	14.7 ± 0.599	3.7 ± 1.01	–	–
O=C(O)c1cc(-c2ccc(/C=C3\SC(=O)N(Cc4ccc(F)cc4)C3=O)o2)ccc1Cl [NB191]	> 100	–	> 349	> 100	> 100	–	–
Cc1ccc(C(=O)O)cc1-c1ccc(/C=C2\SC(=O)N(c3ccccc3)C2=O)o1 [NB187]	> 100	–	363 ± 40.1	> 100	> 100	–	–
Cc1ccc(NC(=O)CN2C(=O)S/C(=C\c3ccc(-c4cc(C(=O)O)ccc4Cl)o3)C2=O)cc1 [NB197]	> 100	–	–	> 100	> 100	> 341	–
